Experimental findings from PubChem BioAssay (NCI) are described below.

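Cells were grown in 96-well plates and exposed to each compound for 48 hours at five concentrations; endpoints were interpolated linearly between bracketing concentrations, or set to the highest concentration if not reached. Definition used: TGI = concentration required for complete inhibition of growth.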

Among the test systems are HL-60(TB) leukemia; NCI-H460 lung; HS 578T breast; RPMI-8226 leukemia; OVCAR-4 ovarian; MDA-N; HOP-62 NSCLC; LOX IMVI melanoma; KM12 colon; SF-295 CNS; IGROV1 ovarian; NCI-H23 lung; A549 NSCLC; SF-268 CNS; UACC-62 melanoma; SK-OV-3 ovarian.
Common to all, as to test: DTP human tumour cell line panel, 48 h

Consider `CC(=O)OCC1OC(c2nc3ccccc3s2)=CC(OC(C)=O)C1OC(C)=O` (stereo not drawn), for which the TGI with HL-60(TB) leukemia, in the assay with NCI-H460 lung, in the assay with HS 578T breast, with RPMI-8226 leukemia, in the assay on OVCAR-4 ovarian and in the assay on MDA-N was > 100 µM each time. The TGI in the assay on HOP-62 NSCLC, in the assay on LOX IMVI melanoma, in the assay on KM12 colon, in the assay with SF-295 CNS, in the assay with IGROV1 ovarian and with NCI-H23 lung was > 100 µM in each case. Besides, the concentration for total growth inhibition (TGI) with A549 NSCLC and in the assay with SF-268 CNS was > 100 µM in each case.

On to `COc1cc(OC)nc(-n2c(N)c(C#N)c3ccc([N+](=O)[O-])cc3c2=O)n1`, for which the TGI in the assay on HL-60(TB) leukemia, in the assay on NCI-H460 lung, in the assay on HS 578T breast, in the assay on RPMI-8226 leukemia, in the assay on OVCAR-4 ovarian and with MDA-N was > 100 µM in each case. Besides, the total growth inhibition concentration (TGI) in the assay on HOP-62 NSCLC, with LOX IMVI melanoma, with KM12 colon, in the assay with SF-295 CNS, with IGROV1 ovarian and in the assay on NCI-H23 lung was > 100 µM in each case. Further, the TGI with A549 NSCLC, in the assay with SF-268 CNS and with UACC-62 melanoma was > 100 µM each time.

Regarding `Cc1ccc(N(C(=O)Nc2ccccc2)C2=NCC(C)S2)cc1C` (stereo not drawn), the concentration for total growth inhibition (TGI) (commonly the concentration giving total growth inhibition) in the assay on HL-60(TB) leukemia was 63.7 µM; with NCI-H460 lung it was 44.6 µM; with HS 578T breast, 77.4 µM; with RPMI-8226 leukemia, 49 µM; with OVCAR-4 ovarian it was > 100 µM; in the assay with MDA-N it was 31.9 µM. Besides, the TGI was > 100 µM in the assay on HOP-62 NSCLC; 30.3 µM with LOX IMVI melanoma; 40.5 µM with KM12 colon; 85.3 µM in the assay with SF-295 CNS; > 100 µM in the assay on SK-OV-3 ovarian; 89.8 µM in the assay on IGROV1 ovarian. Besides, the TGI with NCI-H23 lung was 42.5 µM; in the assay on A549 NSCLC, > 100 µM; in the assay with SF-268 CNS it was 69.8 µM.

Consider `CN(C)CCNC(=O)c1cc([N+](=O)[O-])cc2c1Oc1ccccc1O2`, for which the TGI is > 100 µM with HL-60(TB) leukemia; > 100 µM with NCI-H460 lung; 99.8 µM in the assay on HS 578T breast; > 100 µM with RPMI-8226 leukemia; > 100 µM in the assay with OVCAR-4 ovarian; > 100 µM with MDA-N. Further, the TGI with HOP-62 NSCLC, in the assay with LOX IMVI melanoma, in the assay on KM12 colon, in the assay on SF-295 CNS, in the assay on IGROV1 ovarian and in the assay on NCI-H23 lung was > 100 µM in each case. In addition, the TGI in the assay on A549 NSCLC is > 100 µM; with SF-268 CNS, > 100 µM; in the assay with UACC-62 melanoma it was 39.2 µM.

Consider `O=C(c1ccc(Cl)cc1)N(C(=O)N1CCC(c2ccccc2)CC1)c1ccccc1`, for which the total growth inhibition concentration (TGI) is 61.5 µM in the assay with HL-60(TB) leukemia; > 100 µM in the assay with HS 578T breast; 52.3 µM with RPMI-8226 leukemia; > 100 µM with MDA-N; > 100 µM in the assay on LOX IMVI melanoma; 44.6 µM in the assay on KM12 colon. Moreover, the TGI with SF-295 CNS, with SK-OV-3 ovarian, with IGROV1 ovarian, in the assay with NCI-H23 lung, in the assay with SF-268 CNS and with UACC-62 melanoma was > 100 µM each time.

For the molecule `CC(=O)O[C@H]1C(=O)[C@@]2(C)[C@H]([C@H](OC(=O)c3ccccc3)[C@]3(O)C[C@H](OC(=O)[C@H](O)[C@@H](NC(=O)c4cccc(N=[N+]=[N-])c4)c4ccccc4)C(C)=C1C3(C)C)[C@]1(OC(C)=O)CO[C@@H]1C[C@@H]2O`, the TGI in the assay on HL-60(TB) leukemia was < 0.0025 µM; in the assay with NCI-H460 lung, > 25 µM; with HS 578T breast, 0.0712 µM; with RPMI-8226 leukemia, 0.134 µM; in the assay with OVCAR-4 ovarian, > 25 µM; with MDA-N, 0.00735 µM. Moreover, the TGI in the assay on LOX IMVI melanoma is > 25 µM; in the assay with KM12 colon it was > 25 µM; in the assay on SF-295 CNS it was 0.19 µM; with SK-OV-3 ovarian it was > 25 µM; in the assay on IGROV1 ovarian, > 25 µM; with A549 NSCLC, > 25 µM. Besides, the TGI is > 25 µM in the assay on SF-268 CNS and > 15.9 µM with UACC-62 melanoma.

Take `Cc1cn(C2CC(O)C(COC(=O)NCCC(F)(F)C(F)(F)C(F)(F)C(F)(F)F)O2)c(=O)[nH]c1=O` (stereo not drawn): the TGI in the assay with HL-60(TB) leukemia, in the assay with NCI-H460 lung, in the assay on HS 578T breast, with OVCAR-4 ovarian, with MDA-N and in the assay with HOP-62 NSCLC was > 100 µM each time. Also, the TGI with KM12 colon, in the assay on SF-295 CNS, in the assay on SK-OV-3 ovarian, in the assay on IGROV1 ovarian, in the assay on NCI-H23 lung and with A549 NSCLC was > 100 µM each time. Moreover, the TGI in the assay with SF-268 CNS and in the assay with UACC-62 melanoma was > 100 µM each time.

Regarding `COc1cc(-c2cc(-c3ccccc3)nc(-c3c(OC)ccc4c(C)cc(=O)oc34)c2)cc(OC)c1OC`, the concentration for total growth inhibition (TGI) in the assay on HL-60(TB) leukemia, with NCI-H460 lung, in the assay on HS 578T breast, with OVCAR-4 ovarian, in the assay on MDA-N and with HOP-62 NSCLC was > 100 µM throughout. The TGI in the assay on LOX IMVI melanoma, in the assay with KM12 colon, in the assay with SF-295 CNS, in the assay with SK-OV-3 ovarian, in the assay on IGROV1 ovarian and in the assay on NCI-H23 lung was > 100 µM in each case. Moreover, the concentration for total growth inhibition (TGI) in the assay with A549 NSCLC, in the assay on SF-268 CNS and in the assay on UACC-62 melanoma was > 100 µM in each case.

Take `O=C(CCCN1CCC2(CC1)CC(=O)N(N1CCCCCC1)C2=O)c1ccccc1`: the TGI in the assay with HL-60(TB) leukemia, in the assay on HS 578T breast, in the assay on RPMI-8226 leukemia, in the assay with OVCAR-4 ovarian, with MDA-N and in the assay with HOP-62 NSCLC was > 100 µM each time. The TGI in the assay with LOX IMVI melanoma, with SF-295 CNS, in the assay with SK-OV-3 ovarian, in the assay with IGROV1 ovarian, in the assay with NCI-H23 lung and in the assay with A549 NSCLC was > 100 µM in each case. In addition, the TGI with SF-268 CNS and in the assay on UACC-62 melanoma was > 100 µM each time.
